According to PubChem BioAssay (NCI):
Where “and” joins values, the source holds several entries; their conditions need not be identical. Equal entries are not always repeated.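 Growth conditions: 96-well plates. Treatment: test compound, 48 hours, 5 concentrations. Analysis: linear interpolation between bracketing concentrations; unreached endpoints set to highest concentration. GI50: concentration for 50% inhibition of growth. TGI marks complete inhibition of growth.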

What was measured:
Assay in all cases: inhibition of tumour cell growth, NCI panel, 48 h
A498 renal = test system: A498 renal
ACHN renal = test system: ACHN renal
DLD-1 colon = test system: DLD-1 colon
HCT-116 colon = test system: HCT-116 colon
LXFL 529 NSCLC = test system: LXFL 529 NSCLC
OVCAR-3 ovarian = test system: OVCAR-3 ovarian
SF-268 CNS = test system: SF-268 CNS
SK-MEL-2 melanoma = test system: SK-MEL-2 melanoma
SNB-75 CNS = test system: SNB-75 CNS
OVCAR-4 ovarian = test system: OVCAR-4 ovarian

Compound | TGI (A498 renal) | TGI (ACHN renal) | TGI (DLD-1 colon) [µM] | TGI (HCT-116 colon) | TGI (LXFL 529 NSCLC) [µM] | TGI (OVCAR-3 ovarian) | TGI (SF-268 CNS) | TGI (SK-MEL-2 melanoma) | TGI (SNB-75 CNS) | TGI (OVCAR-4 ovarian) | GI50 (A498 renal) | GI50 (ACHN renal) | GI50 (HCT-116 colon) | GI50 (OVCAR-3 ovarian) | GI50 (OVCAR-4 ovarian) | GI50 (SF-268 CNS) | GI50 (SK-MEL-2 melanoma) | GI50 (SNB-75 CNS)
C/C(CC(=O)NCCc1ccccc1)=N\NS(=O)(=O)c1ccc(C)cc1 | > 100 µM | > 100 µM | > 100 | > 100 µM | > 100 | > 100 µM | > 100 µM | > 100 µM | > 100 µM |  |  |  |  |  |  |  |  | 
CCO/C=C1\N=C(c2ccc(Cl)c(Cl)c2)OC1=O | > 100 µM | > 100 µM | > 100 |  | > 100 | > 100 µM | > 100 µM | > 100 µM | > 100 µM | > 100 µM |  |  |  |  |  |  |  | 
CN(C)C(=O)Nc1nc2cc(Cl)c(Cl)cc2[nH]1 |  | > 100 µM |  | > 35 µM |  | 1.94 µM | > 100 µM | > 49.1 µM | > 35.2 µM | > 100 µM | 0.487 µM | 3.11 µM | 0.463 µM | 0.393 µM | 1.61 µM | 2.89 µM | 4.55 µM | 3.08 µM
COc1c(C(C)=O)c(OCCCCOc2c(C(C)=O)c(OC)c3ccoc3c2OC)c(OC)c2occc12 | > 100 µM | > 100 µM |  | > 100 µM |  | > 100 µM | > 100 µM | > 100 µM | > 100 µM | > 100 µM | > 100 µM | 3.6 µM | 3.71 µM | 3.75 µM | 3.39 µM | > 42.1 µM | 2.76 µM | 8.72 µM
ClC(Cl)=C(Cl)C1(Cl)CC1COCc1ccccc1 (centres undefined) | > 100 µM | > 100 µM | > 100 |  | > 100 | 68.2 µM | > 100 µM | 36.7 µM | > 100 µM | > 100 µM |  |  |  |  |  |  |  | 
O=C1CCc2c(sc3[nH]c(=S)n(-c4cc(C(F)(F)F)cc(C(F)(F)F)c4)c(=O)c23)C1 | 7.44 µM | 1.31 µM |  | 2.54 µM |  | 1.49 µM | > 45.4 µM | 3.74 µM | 3.66 µM | 1.72 µM | 2.15 µM | 0.344 µM | 0.341 µM | 0.358 µM | 0.359 µM | 0.469 µM | 0.721 µM | 0.328 µM
COc1ccccc1/C=C1\COc2ccc(-c3ccccc3)cc2C1=O | 6.43 µM | 26 µM |  | 12 µM |  | 5.48 µM | 10.4 µM | 22.1 µM | 6.97 µM | > 100 µM | 2.53 µM | 3.86 µM | 2.98 µM | 2.58 µM | 3.74 µM | 3.14 µM | 3.82 µM | 2.46 µM
C/C(=C\c1ccn(-c2ccccc2N)n1)[C@@H]1C[C@@H]2O[C@]2(C)CCC[C@H](C)[C@H](O)[C@@H](C)C(=O)C(C)(C)[C@@H](O)CC(=O)O1 | 0.669 µM | > 50 µM |  | > 50 µM |  | 0.457 µM | > 50 µM | > 50 µM | 0.186 µM | > 50 µM | 0.0372 µM | 0.283 µM | 0.0191 µM | 0.0177 µM | 0.392 µM | 0.111 µM | 0.0819 µM | 0.00907 µM
COc1ccc(/C=C(/c2ccccc2)[N+](=O)[O-])c(OC)c1 | 2.99 µM | 2.81 µM |  | 2.29 µM |  | 3.09 µM | 3.14 µM | 5.28 µM | 1.84 µM | 2.92 µM | 1.55 µM | 1.49 µM | 1.02 µM | 1.69 µM | 1.55 µM | 1.65 µM | 1.91 µM | 0.363 µM
CNC(=O)NCC1OC(n2cnc3c(NC(=O)Nc4ccccc4)ncnc32)C(O[Si](C)(C)C(C)(C)C)C1O[Si](C)(C)C(C)(C)C (centres undefined) | 4.96 µM | > 100 µM |  | 4.31 µM |  | 5.54 µM | 14 µM | 5.54 µM | 34.1 µM | 43.9 µM | 2.03 µM | 3.83 µM | 2.11 µM | 2.6 µM | 3.44 µM | 3.58 µM | 2.45 µM | 2.43 µM
O=S(=O)(O)O | 1780 µM | 1550 µM | > 3000 | 914 µM |  | 1770 µM | 1980 µM | 1450 µM | 2290 µM | 2080 µM |  |  |  |  |  |  |  | 
O=[N+]([O-])/C=C/c1c(Cl)cccc1Cl | 30 µM | 7.49 µM |  | 14 µM |  | 3.28 µM | 28.2 µM | 14 µM | 32.4 µM | 11.4 µM |  |  |  |  |  |  |  | 
O=C1NC(N/N=C\C(O)C(O)C(O)C(O)CO)=N/C1=C/c1ccccc1 (centres undefined) | > 100 µM and 39.5 µM | > 100 µM and 28.1 µM |  | > 100 µM and 33.8 µM |  | > 100 µM and 37.7 µM | > 100 µM and 42.7 µM | > 100 µM and 32.7 µM | > 100 µM and 54 µM | > 100 µM and 33.8 µM | 45.2 µM and 15.8 µM and > 100 µM | 80.6 µM and 14.7 µM and > 100 µM | 52.2 µM and 16.4 µM and > 100 µM | 97.1 µM and 20.5 µM and > 100 µM | 52.7 µM and 14.5 µM and > 100 µM | > 100 µM and 15.2 µM | > 100 µM and 16.6 µM | > 100 µM and 24.9 µM
CN1C(=O)c2ccc3ccccc3c2C1=O | > 100 µM | > 100 µM |  | > 100 µM |  | > 100 µM | > 100 µM | > 100 µM | > 100 µM | > 100 µM |  |  |  |  |  |  |  | 
CCCCCCCCCCCC1=NC(C)(C)CN1C(C)(C)CO | 20.8 µM | 10 µM |  | 3.06 µM |  | 6.2 µM | 11.3 µM | 3.88 µM | 7.12 µM | 15.8 µM | 5.76 µM | 3.01 µM | 1.56 µM | 2.05 µM | 4.61 µM | 2.35 µM | 2.12 µM | 2.3 µM
Cc1cn2c(/C=C3/C(=O)Nc4c3ccc3ccccc43)c(C(F)(F)F)nc2s1 | > 100 µM | > 100 µM |  | > 100 µM |  | 10.2 µM | > 100 µM | > 100 µM | > 100 µM | > 100 µM | 1.7 µM | 6.24 µM | 2.19 µM | 0.381 µM | 3.63 µM | 3.22 µM | 1.06 µM | 0.582 µM
O=c1c2c([nH]c3nccn13)CCC2 | 8.91 µM | > 10 µM |  | > 10 µM |  | > 10 µM | > 10 µM | > 10 µM | > 10 µM | > 10 µM |  |  |  |  |  |  |  | 
